Measured values from patent publication US5962415A, “Compositions comprising a peptide inhibitor of nuclear protein translocation and an immunosuppressant and methods of use thereof” (Bristol-Myers Squibb Co., priority 1998, dated 1999).
Where a SMILES comes first, the peptide text is derived from it. Where no end group is shown, it is not given here. [ ]: non-standard residue; d: D form.

What was measured:
[1] = tested on: THP-1 human monocytic cells; experiment: LPS-stimulated cytokine (TNF-α, IL-8) production in THP-1 cells; assay type: cell-based; settings: 5 μM, 5 hr LPS stimulation, FIG. 4A
Method: Amounts of TNF-α, IL-6, IL-8 and IL-10 were determined using the ELISA kits obtained from Genzyme following the manufacturer's instructions.
THP-1 control cells were harvested, washed and set up in RPMI 1640, 10% fetal calf serum, at a concentration of 2.56×10^6 cells/ml. Phosphate buffered saline ("PBS") or one of the two respective polypeptides SV40MEM or SV40 (a peptide having only the SV40 large T antigen NLS sequence) were added to the cells at a concentration of 10 μM or 20 μM. The cells were then plated into a 96-well plate with 0.1 ml/well. The plate was then incubated for 2 hr at 37° C. in a 5% CO2 atmosphere. Following the initial incubation, media or a titration of LPS was added to each of the wells in a volume of 0.1 ml. Thus, the final concentrations of polypeptides were 5 μM or 10 μM. Following 5 hr of LPS stimulation, supernatants were taken and TNF-α and IL-8 levels were determined by ELISA. In addition, cells treated with PBS or polypeptides, but not incubated with LPS, were removed at the time of supernatant removal to determine the viability of the cells following 7 hr of contact with the polypeptides.
This experiment was conducted to compare the inhibitory effect of the SV40MEM polypeptide and other inhibitory polypeptides on LPS induction of cytokine production. THP-1 control cells (ATCC 9/95 stock) were harvested, washed and set up in RPMI 1640, 10% fetal calf serum as described in Example 2. The cells were incubated for 2 hr with PBS or (1) the FGF signal sequence, (2) a polypeptide having the FGF signal sequence and the NLS of NF-κB p50 on the carboxy terminus of the signal sequence, (3) the SV40MEM polypeptide comprised of L-amino acids, or (4) the SV40MEM polypeptide comprised of D-amino acids at a final concentration of 5 μM. The cells were then plated into a 96-well plate with 0.1 ml/well. The plate was then incubated for 2 hr at 37° C. in a 5% CO2 atmosphere. Following the initial incubation, media or a titration of LPS was added to each of the wells in a volume of 0.01 ml/well. Following 5 hr of LPS stimulation, supernatants were taken and TNF-α levels were determined by ELISA.

HIVLAI in Jurkat cells = experiment: Nuclear translocation of HIV genome in Jurkat cells infected with HIVLAI (gag and 2-LTR circle PCR); assay type: cell-based, HIV-1; settings: SV40MEM 0.1 and 1.0 μM, NF-κBMEM 10 μM, 24 hr
Method: (§1) HIV-1 M1 p24 levels were assayed using the procedures described in Smithgall et al (1995) AIDS Res. and Human Retrovirus 11:885. Proviral DNA content (gag) was measured using polymerase chain reaction analysis as described in Smithgall et al. (1995), supra.
2-LTR circles, a strictly nuclear form of HIV-1 DNA the expression of which indicates nuclear localization of the viral genome, was measured by as described in Bukrinsky et al (1991) Science 254:423.
Jurkat cells were incubated with the SV40MEM polypeptide for 3 hr with HIVLAI for 1-2 hr. The virus was washed out and the cultures supplemented with the appropriate inhibitor (SV40MEM, 0.1,μM and 1.0 μM; NF-κBMEM, 10 μM). After 24 hr, the cells were collected, lysed and evaluated for HIV-1 DNA by polymerase chain reaction analysis of gag sequences (see FIG. 8A) and 2-LTR circles (see FIG. 8B).

[2] = tested on: 70Z/3 murine leukemia pre-B cells; experiment: LPS-stimulated surface antigen expression (κ Ig light chain, IL-2 receptor, CD45) in 70Z/3 cells; assay type: cell-based; settings: for potency and efficacy of L- versus D-amino acid form, LPS-stimulated κ Ig expression: FIG. 3
Method: Expression of κ Ig, CD45, CD40, and the interleukin-2 receptor was assayed using standard enzyme-linked immunosorbent assays ("ELISAs") (see, Coligan et al. (eds.) (1991) Current Protocols in Immunology, Wiley & Sons, p. 2.10 or by FACS staining to measure cell-surface markers as described in Raff (1970) Immunology 19:637). Antibodies form cell surface markers were obtained from Pharmingen Co.
The effect of the SV40MEM polypeptide was compared with two additional polypeptides, […] (SEQ ID NO:2) (the "HIV-1MEM" polypeptide), which is composed of the membrane translocation domain of FGF flanked by the NLS from the HIV-1 matrix protein and […] (SEQ ID NO:3) (the "C-MYCMEM" polypeptide), which contains the NLS from the human c-myc oncoprotein (Chelsky et al. (1989), supra, and Dang et al. (1988), supra) using murine 70Z/3 pre-B cells.
Murine 70Z/3 cells (ATCC TlD-158) are a model cell line for analyzing the effects of compounds on B-cell differentiation. In response to S. typhosa LPS (Difco) or γ-interferon, these cells differentiate from surface κ immunoglobulin negative to κ Ig positive.
[…] of: (1) a peptide containing only the FGF signal sequence AAVALLPAVLLALLAP (SEQ ID NO:4) (the "MEM" peptide); (2) a polypeptide having the FGF signal sequence and the NLS of NF-κB p50 on the carboxy terminus of the signal sequence, namely, the NF-κBMEM polypeptide; (3) the SV40MEM polypeptide comprised of L-amino acids; or (4) the SV40MEM polypeptide comprised of D-amino acids. The cells were then incubated with LPS as described in Example 2 and assayed for expression of κ light chain expression.

Murine 70Z/3 B-cells = experiment: Proliferation of 70Z/3 murine B-cell leukemia cells; assay type: cell-based; settings: 0.2 μM (lowest concentration), 48 hr, FIG. 9
Method: Murine 70Z/3 B-cells were treated with 0, 0.2, 0.5, 1, or 2 μM […] prepared from D-amino acids. On day 0, the cell concentrations of the control and treated cells were the same. After 48 hr of exposure to the peptide, the treated cells were again counted and compared to control cells.

Human RAJI B-cells = experiment: Proliferation of RAJI human B-cell leukemia cells; assay type: cell-based; settings: 5 μM (lowest concentration), 48 hr, FIG. 10
Method: Human RAJI B-cells were treated with 0, 5, 10 or 25 μM SV40MEM prepared from D-amino acids. On day 0, the cell concentrations of the control and treated cells were the same. After 48 hr of exposure to the peptide, the treated cells were again counted and compared to control cells.

CD14 = experiment: LPS binding to CD14 (plate assay with soluble CD14 Ig); settings: E. coli AO16 LPS, 2 hours at 4° C., FIG. 14
Method: 96-well plates were coated with goat-anti human Ig, soluble CD-1 4 Ig was added, and the plates were incubated overnight at 4° C. The BMS polypeptide, the C-MYCMEM polypeptide, an SV40 NLS polypeptide containing a single SV40 large T-antigen NLS, a c-myc NLS without a translocation sequence (AKRVKL (SEQ ID NO:6)), a control non-NLS polypeptide, 377G, or PBS, were added to the plates and the plates were incubated for 5 min. E. coli AO16 LPS was then added to the plates and the plates were incubated for 2 hours at 4° C. The plates were washed and LPS was detected using 0.5 μg/ml mouse anti-E. coli LPS, followed by goat anti-mouse horseradish peroxidase.

HIV-1 primary isolate M1 = experiment: Infection of anti-CD3 activated PBMCs with HIV-1 primary isolate M1; assay type: cell-based; settings: seven days, compared to untreated but activated cultures
Method: as §1
PBMCs were obtained washed, cultured, and infected with HIV-1 as described in Dubrovsky et al. (1995) Mol. Med. 1:217-230). PBMCs from a seronegative donor were collected and depleted of CD8^+ T cells by negative selection. The cells were activated with an anti-CD3 monoclonal antibody prepared according to the method described in Wee et al. (1993) J. Exp. Med. 177:219 and incubated for 3 hr with the HIV-1MEM polypeptide. The cells were then incubated with M1 virus isolated from PBMC collected from HIV-infected donors in the presence of inhibitors for 2 hr. The virus was washed out, and the cultures supplemented with the appropriate inhibitor and allowed to incubate for seven days. Virus production was determined by measuring the p24 levels in the culture supernatant (FIG. 6B) and contrasted with the effect of the polypeptide on cell proliferation (FIG. 6A), which virus load was determined by polymerase chain reaction analysis of proviral DNA content (gag) (FIG. 6C). The MEM peptide represents the FGF membrane translocating portion of the HIV-1MEM polypeptide.

[3] = tested on: HIV-M1 virus in H9 human lymphoma T-cells; experiment: Infection of H9 T-cells with HIV-M1 virus (PCR of HIV-1 DNA); assay type: cell-based; settings: 2 μM, 4 hr preincubation, day 3, FIG. 7
Method: as §1
(§2) H9 and Jurkat cells were incubated with the HIV-1MEM polypeptide (2,μM) or the control MEM peptide for 4 hr prior to addition of HIV-M1 virus. Cells were harvested on day 3 following injection and the level of HIV-1 DNA evaluated by polymerase chain reaction.

[4] = tested on: HIV-M1 virus in Jurkat human leukemia T-cells; experiment: Infection of Jurkat T-cells with HIV-M1 virus (PCR of HIV-1 DNA); assay type: cell-based; settings: 2 μM, 4 hr preincubation, day 3, FIG. 7
Method: as §1, §2

`CSCC[C@H](NC(=O)[C@H](CC(C)C)NC(=O)[C@H](CCCCN)NC(=O)[C@H](CCC(N)=O)NC(=O)[C@H](CCCNC(=N)N)NC(=O)[C@H](CCCCN)NC(=O)[C@H](CCCNC(=N)N)NC(=O)[C@H](CCC(N)=O)NC(=O)[C@@H](NC(=O)[C@@H]1CCCN1C(=O)[C@H](C)NC(=O)[C@H](CC(C)C)NC(=O)[C@H](CC(C)C)NC(=O)[C@H](C)NC(=O)[C@H](CC(C)C)NC(=O)[C@H](CC(C)C)NC(=O)[C@@H](NC(=O)[C@H](C)NC(=O)[C@@H]1CCCN1C(=O)[C@H](CC(C)C)NC(=O)[C@H](CC(C)C)NC(=O)[C@H](C)NC(=O)[C@@H](NC(=O)[C@H](C)NC(=O)[C@H](C)N)C(C)C)C(C)C)C(C)C)C(=O)N1CCC[C@H]1C(N)=O` [NF-κBMEM] was tested, and the “LPS-induced TNF-α expression” value [1] was “did not significantly inhibit”, the “viral internalization / virus entry (gag sequences)” value (HIVLAI in Jurkat cells; FIG. 8A) was “no effect” and the “translocation of the viral genome into the nucleus (2-LTR circles)” value (HIVLAI in Jurkat cells; FIG. 8B) was “no effect”.

For `CC(C)C[C@@H](NC(=O)[C@@H](C)NC(=O)[C@@H](CC(C)C)NC(=O)[C@@H](CC(C)C)NC(=O)[C@H](NC(=O)[C@@H](C)NC(=O)[C@H]1CCCN1C(=O)[C@@H](CC(C)C)NC(=O)[C@@H](CC(C)C)NC(=O)[C@@H](C)NC(=O)[C@H](NC(=O)[C@@H](C)NC(=O)[C@@H](C)NC(=O)[C@H](NC(=O)[C@@H](CCCCN)NC(=O)[C@@H](CCCNC(=N)N)NC(=O)[C@@H](CCCCN)NC(=O)[C@@H](CCCCN)NC(=O)[C@@H](CCCCN)NC(=O)[C@H]1CCCN1)C(C)C)C(C)C)C(C)C)C(=O)N[C@H](CC(C)C)C(=O)N[C@H](C)C(=O)N1CCC[C@@H]1C(=O)N[C@H](CCCCN)C(=O)N[C@H](CCCCN)C(=O)N[C@H](CCCCN)C(=O)N[C@H](CCCNC(=N)N)C(=O)N[C@H](CCCCN)C(=O)N[C@@H](C(=O)N[C@H](CS)C(N)=O)C(C)C` [SV40MEM (D-amino acid form)] (H-[dP][dK][dK][dK][dR][dK][dV][dA][dA][dV][dA][dL][dL][dP][dA][dV][dL][dL][dA][dL][dL][dA][dP][dK][dK][dK][dR][dK][dV][dC]-NH2; N-terminus and C-terminus assumed), the “potency and efficacy of L- versus D-amino acid form, LPS-stimulated κ Ig expression” value [2] was “equally potent and efficacious”, the “efficacy at inhibiting κ Ig light chain production (comparison of three polypeptides)” value ([2]; dose-response data, FIG. 1B) was “approximately equally efficacious” and the “LPS-induced TNF-α expression” value [1] was “significantly inhibited”. For the same compound, the “proliferation (cell count versus control)” value (Murine 70Z/3 B-cells) was “inhibited” and the “proliferation (cell count versus control)” value (Human RAJI B-cells) was “inhibited”.

For AKRVKL [c-myc NLS, reference compound], the “binding of LPS to CD14” value (CD14) was “did not block binding”.

With “KKKYKAAVALLPAVLLALLAKKKYKC [HIV-1MEM, membrane translocation domain of FGF flanked by the NLS from the HIV-1 matrix protein]” the “efficacy at inhibiting κ Ig light chain production (comparison of three polypeptides)” value ([2]; dose-response data, FIG. 1B) was “approximately equally efficacious”, the “potency at inhibiting κ Ig light chain production compared with SV40MEM” value ([2]; dose-response data, FIG. 1B) was “not as potent” and the “virus production (p24 levels in culture supernatant)” value (HIV-1 primary isolate M1; FIG. 6B) was “significantly reduced”. For the same compound, the “virus load (PCR of proviral DNA content, gag)” value (HIV-1 primary isolate M1; FIG. 6C) was “significantly reduced”, the “infection (level of HIV-1 DNA by PCR)” value [3] was “inhibited infection” and the “infection (level of HIV-1 DNA by PCR)” value [4] was “inhibited infection”.

With “PKKKRKVAAVALLPAVLLALLAPKKKRKVC-NH2 (C-terminus assumed) [SV40MEM (L-amino acid form)]” the “potency and efficacy of L- versus D-amino acid form, LPS-stimulated κ Ig expression” value [2] was “equally potent and efficacious” and the “LPS-induced TNF-α expression” value [1] was “significantly inhibited”.
